From patent US8987233B2, “Bruton's tyrosine kinase activity probe and method of using” (Pharmacyclics, Inc., priority 2006, dated 2015) come the findings set out here.

In one assay the target is c-met (Homo sapiens, UniProt P08581). Description: TR-FRET kinase assay, c-met. It is filed as biochemical. Particulars: ATP at Km. The procedure: (§1) Kinase activity for Btk, Abl, c-met, ITK, LCK, and EGFR was determined using a time-resolved fluorescence resonance energy transfer (TR-FRET) methodology. Measurements were performed in a reaction volume of 50 μl using 96-well assay plates. […] The reaction was quenched by the addition of 1.2 equivalents of EDTA (relative to divalent cation) in 25 μL of 1× Lance buffer (Perkin-Elmer). Streptavidin-APC (Perkin-Elmer) and Eu-labeled p-Tyr100 antibody (Perkin-Elmer) in 1× Lance buffer were added in a 25 μL volume to give final concentrations of 100 nM and 2.5 nM, respectively, and the mixture was allowed to incubate for one hour. The TR-FRET signal was measured on a multimode plate reader with an excitation wavelength of 330 nm and detection wavelengths of 615 and 665 nm. Activity was determined by the ratio of the fluorescence at 665 nm to that at 615 nm. For each compound, enzyme activity was measured at various concentrations of compound. Negative control reactions were performed in the absence of inhibitor in replicates of six, and two no-enzyme controls were used to determine baseline fluorescence levels. Inhibition constants {Ki(app)} were obtained using the program BatchKi (23). […]; for all kinases, [ATP]=KmATP, [Btk]total=0.5 nM and [Lck]total=6 nM.
Background: Time-resolved FRET reads energy transfer from a long-lived donor to a nearby acceptor.

Assay [1] concerns intracellular calcium mobilization in Ramos cells following B cell receptor activation. Description: Calcium flux assay in Ramos B-cells stimulated with anti-human IgM. Particulars: anti-IgM stimulation, read-out: IC50 Ca2+ flux (calcium mobilization). The format is cell-based. The procedure: Calcium flux assay was performed according to the protocol described by the manufacturer (Molecular Devices). Briefly, actively growing Ramos B-cells in RPMI medium supplemented with 10% FBS were washed and re-plated in low serum medium to approximately 5×10^5 cells per 100 μl per well in 96-well plate. Compounds to be assayed were dissolved in DMSO, diluted to appropriate concentrations in low serum medium (from 0 to 10 μM final concentrations at a stepwise dilution factor of 0.3), added to each well (the final DMSO concentration was 0.01% in each well) and incubated at 37° in a 5% CO2 incubator for 1 hour. 100 μl calcium assay dye (Calcium 3 assay kit, Molecular Devices) was then added to each well and the incubation was continued for one hour. Compound-treated cells were stimulated with a goat anti-human IgM antibody (80 μg/ml) and the calcium mobilization signal was read in a Flexstation II 384 (Molecular Devices) at excitation and emission wavelengths of 485 nm and 538 nm, respectively, for 200 seconds. The relative fluorescence units (RFU) and the fifty percent inhibition values (IC50%) were recorded and analyzed using the SoftMax program (Molecular Devices).

A further assay addresses Abl (Homo sapiens, UniProt P00519). In words: TR-FRET kinase assay, Abl. Particulars: ATP at Km. It is filed as biochemical. The procedure:
(§2) Kinase activity for Btk, Abl, c-met, ITK, LCK, and EGFR was determined using a time-resolved fluorescence resonance energy transfer (TR-FRET) methodology. Measurements were performed in a reaction volume of 50 μl using 96-well assay plates. […] For each compound, enzyme activity was measured at various concentrations of compound. Negative control reactions were performed in the absence of inhibitor in replicates of six, and two no-enzyme controls were used to determine baseline fluorescence levels. Inhibition constants {Ki(app)} were obtained using the program BatchKi (23).

Another assay addresses EGFR (Homo sapiens, UniProt P00533). Description: TR-FRET kinase assay, EGFR. The format is biochemical. The following applies: ATP at Km. The procedure:
as §1

The next assay has as its target Lck (Homo sapiens, UniProt P06239). In words: TR-FRET kinase assay, Lck. It is filed as biochemical. The following applies: ATP at Km. The procedure: as §2
The target of assay [2] is T1, Btk (Homo sapiens, UniProt Q06187). In words: Inhibition of PLCγ2 phosphorylation at Tyr 1217 in 293H cells (ELISA). It is filed as cell-based. The following applies: Tyr 1217, ELISA, read-out: IC50 for probe inhibition of PLCγ2 phosphorylation. (ELISA stands for enzyme-linked immunosorbent assay.)
The target of assay [3] is T1, Btk. In words: TR-FRET kinase assay, Btk. Also on record: His6 (N); purchased Upstate Biochem. The format is biochemical. The procedure: as §1
In assay [4] the target is T1, Btk. Description: Probe labeling of endogenous Btk in cultured B cells (DOHH2).
Method: In some embodiments, to determine if a test Btk probe detects endogenous levels of Btk activity, label cultured B cells such as Ramos or DOHH2 B cells were used.
Cells were then harvested and lysed by incubation in 50 μl of cell lysis buffer (CelLytic M, Sigma) supplemented with 1× protease inhibitor and 1× phosphatase inhibitor cocktails (Calbiochem) for 10 min on ice. The protein concentrations in cell lysates were determined by Bradford protein assay (Pierce). Lysates equivalent to 20 μg of total protein were fractionated on 4 to 20% SDS-gradient gels (Invitrogen), and scanned using a Typhoon densitometer as described above. Labeling of Ramos cells was carried out in identical fashion except RPMI medium was used.
In another assay the target is purified, active Btk (Homo sapiens, UniProt Q06187). In words: Btk labeling in vitro (purified enzyme, SDS-PAGE, fluorescent scan).
Assay [5] addresses T1, Btk. Description: Probe labeling of Btk in 293H cells stably co-expressing Btk and PLCγ2.
Assay [6] addresses Btk Cys 481 to Ala mutation (Homo sapiens, UniProt Q06187, C481A). Description: Probe labeling in 293H cells transiently co-expressing PLCγ2 and Btk C481A. Particulars: transient co-expression with PLCγ2.
Method: (§3) The selected co-expressor cell line was routinely maintained in D-MEM containing 10% FBS, 1× non-essential amino acids, 1× antibiotics, and supplemented with 200 μg/ml G418 and 25 μg/ml blastocidin. […] Cells were then harvested and lysed by incubation in 50 μl of cell lysis buffer (CelLytic M, Sigma) supplemented with 1× protease inhibitor and 1× phosphatase inhibitor cocktails (Calbiochem) for 10 min on ice. The protein concentrations in cell lysates were determined by Bradford protein assay (Pierce). Lysates equivalent to 20 μg of total protein were fractionated on 4 to 20% SDS-gradient gels (Invitrogen), and scanned using a Typhoon densitometer as described above. Labeling of Ramos cells was carried out in identical fashion except RPMI medium was used.
Assay [7] concerns the target Btk Lys 430 to Ala mutant (Homo sapiens, UniProt Q06187, K430A). In words: Probe labeling in 293H cells transiently co-expressing PLCγ2 and Btk K430A. Particulars: transient co-expression with PLCγ2.
Method: as §3
Assay [8] has as its target Btk Tyr 551 to Ala mutant (Homo sapiens, UniProt Q06187, Y551A). Description: Probe labeling in 293H cells transiently co-expressing PLCγ2 and Btk Y551A. Particulars: transient co-expression with PLCγ2.
Method: as §3

The structures appear in SMILES notation.

T1 sequence (Q06187 whole entry): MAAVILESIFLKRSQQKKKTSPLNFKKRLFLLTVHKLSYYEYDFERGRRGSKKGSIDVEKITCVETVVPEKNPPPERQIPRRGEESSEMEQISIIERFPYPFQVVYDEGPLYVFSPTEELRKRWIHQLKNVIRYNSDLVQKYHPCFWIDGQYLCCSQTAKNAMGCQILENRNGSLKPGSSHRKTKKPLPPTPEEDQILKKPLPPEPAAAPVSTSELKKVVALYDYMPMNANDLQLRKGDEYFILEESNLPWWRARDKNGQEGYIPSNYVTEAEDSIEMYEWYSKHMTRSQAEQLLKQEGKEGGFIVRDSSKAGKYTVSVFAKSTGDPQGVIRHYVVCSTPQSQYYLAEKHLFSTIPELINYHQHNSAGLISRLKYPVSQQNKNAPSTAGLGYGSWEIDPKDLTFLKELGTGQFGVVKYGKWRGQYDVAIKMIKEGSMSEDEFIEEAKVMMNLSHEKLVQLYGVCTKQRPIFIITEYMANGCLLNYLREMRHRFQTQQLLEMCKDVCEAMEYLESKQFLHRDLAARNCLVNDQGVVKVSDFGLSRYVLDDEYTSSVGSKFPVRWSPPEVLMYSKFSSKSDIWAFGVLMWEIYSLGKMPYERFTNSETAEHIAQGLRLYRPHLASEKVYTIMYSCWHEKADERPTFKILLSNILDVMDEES
Sequence of purified, active Btk (Q06187 whole entry): as above
Sequence of c-met (P08581 25-1390): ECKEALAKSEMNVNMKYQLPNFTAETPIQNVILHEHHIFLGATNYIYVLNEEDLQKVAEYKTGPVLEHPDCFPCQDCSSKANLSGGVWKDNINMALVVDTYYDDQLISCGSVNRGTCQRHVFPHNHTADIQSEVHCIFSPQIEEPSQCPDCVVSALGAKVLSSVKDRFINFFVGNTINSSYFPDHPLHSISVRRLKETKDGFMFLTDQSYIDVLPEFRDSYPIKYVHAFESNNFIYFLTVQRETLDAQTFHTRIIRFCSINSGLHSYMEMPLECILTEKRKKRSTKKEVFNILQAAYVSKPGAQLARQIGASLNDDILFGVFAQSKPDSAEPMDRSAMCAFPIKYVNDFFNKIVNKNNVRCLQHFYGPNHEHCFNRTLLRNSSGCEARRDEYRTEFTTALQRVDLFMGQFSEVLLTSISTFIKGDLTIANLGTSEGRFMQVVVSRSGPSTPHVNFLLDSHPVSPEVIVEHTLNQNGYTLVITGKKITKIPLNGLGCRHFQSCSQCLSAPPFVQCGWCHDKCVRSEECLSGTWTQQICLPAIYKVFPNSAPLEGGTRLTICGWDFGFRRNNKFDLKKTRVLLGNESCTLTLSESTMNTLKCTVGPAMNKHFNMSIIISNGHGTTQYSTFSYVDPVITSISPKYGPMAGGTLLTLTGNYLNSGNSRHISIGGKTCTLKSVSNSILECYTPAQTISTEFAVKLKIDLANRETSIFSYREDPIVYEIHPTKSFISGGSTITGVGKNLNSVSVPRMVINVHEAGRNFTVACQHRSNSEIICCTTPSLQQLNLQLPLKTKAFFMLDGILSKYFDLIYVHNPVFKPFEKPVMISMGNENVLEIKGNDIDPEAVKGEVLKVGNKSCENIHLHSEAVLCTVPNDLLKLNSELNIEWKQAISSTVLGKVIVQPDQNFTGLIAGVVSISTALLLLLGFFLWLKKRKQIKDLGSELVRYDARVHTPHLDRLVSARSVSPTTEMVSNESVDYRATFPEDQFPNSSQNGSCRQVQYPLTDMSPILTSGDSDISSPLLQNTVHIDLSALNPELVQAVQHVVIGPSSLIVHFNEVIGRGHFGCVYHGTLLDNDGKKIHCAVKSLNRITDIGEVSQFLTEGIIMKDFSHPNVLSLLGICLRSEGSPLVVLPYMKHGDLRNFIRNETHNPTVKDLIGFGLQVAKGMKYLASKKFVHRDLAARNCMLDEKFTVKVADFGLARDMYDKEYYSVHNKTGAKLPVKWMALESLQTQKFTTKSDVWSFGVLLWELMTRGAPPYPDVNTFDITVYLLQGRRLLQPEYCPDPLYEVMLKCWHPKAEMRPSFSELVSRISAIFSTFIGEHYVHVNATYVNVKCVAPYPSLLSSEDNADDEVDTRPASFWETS
Sequence of Btk Lys 430 to Ala mutant (Q06187 whole entry K430A): as the sequence (Q06187 whole entry) above, with K430A counted along it
Sequence of Abl (P00519 whole entry, species assumed): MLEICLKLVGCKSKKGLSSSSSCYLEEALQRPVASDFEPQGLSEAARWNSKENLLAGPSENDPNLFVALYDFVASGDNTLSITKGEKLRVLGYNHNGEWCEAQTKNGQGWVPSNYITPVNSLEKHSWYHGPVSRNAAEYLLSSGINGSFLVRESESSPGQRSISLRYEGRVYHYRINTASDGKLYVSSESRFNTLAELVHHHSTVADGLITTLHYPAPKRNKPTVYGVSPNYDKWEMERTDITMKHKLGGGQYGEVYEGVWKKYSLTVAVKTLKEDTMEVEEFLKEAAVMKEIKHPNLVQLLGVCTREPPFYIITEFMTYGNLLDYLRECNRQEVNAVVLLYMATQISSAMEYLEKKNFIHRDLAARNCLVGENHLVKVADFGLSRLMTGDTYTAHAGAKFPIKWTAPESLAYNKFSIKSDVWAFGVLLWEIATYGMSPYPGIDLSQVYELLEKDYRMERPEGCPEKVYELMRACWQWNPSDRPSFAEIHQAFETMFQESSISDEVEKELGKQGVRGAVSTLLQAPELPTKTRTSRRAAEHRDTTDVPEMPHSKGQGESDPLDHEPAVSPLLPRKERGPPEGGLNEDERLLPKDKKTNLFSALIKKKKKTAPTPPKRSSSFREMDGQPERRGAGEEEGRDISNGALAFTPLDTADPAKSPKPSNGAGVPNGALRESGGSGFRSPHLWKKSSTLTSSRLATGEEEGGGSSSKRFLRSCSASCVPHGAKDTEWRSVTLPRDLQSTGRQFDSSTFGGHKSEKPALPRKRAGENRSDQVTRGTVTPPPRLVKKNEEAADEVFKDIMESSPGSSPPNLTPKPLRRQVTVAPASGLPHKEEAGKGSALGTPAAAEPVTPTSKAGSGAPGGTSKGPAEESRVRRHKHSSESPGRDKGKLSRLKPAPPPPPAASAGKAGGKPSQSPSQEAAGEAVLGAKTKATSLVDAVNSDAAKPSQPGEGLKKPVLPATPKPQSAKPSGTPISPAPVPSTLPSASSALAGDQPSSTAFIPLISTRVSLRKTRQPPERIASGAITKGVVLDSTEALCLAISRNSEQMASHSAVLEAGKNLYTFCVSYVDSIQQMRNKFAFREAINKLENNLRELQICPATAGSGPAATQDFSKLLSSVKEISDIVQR
Sequence of EGFR (P00533 25-1210, species assumed): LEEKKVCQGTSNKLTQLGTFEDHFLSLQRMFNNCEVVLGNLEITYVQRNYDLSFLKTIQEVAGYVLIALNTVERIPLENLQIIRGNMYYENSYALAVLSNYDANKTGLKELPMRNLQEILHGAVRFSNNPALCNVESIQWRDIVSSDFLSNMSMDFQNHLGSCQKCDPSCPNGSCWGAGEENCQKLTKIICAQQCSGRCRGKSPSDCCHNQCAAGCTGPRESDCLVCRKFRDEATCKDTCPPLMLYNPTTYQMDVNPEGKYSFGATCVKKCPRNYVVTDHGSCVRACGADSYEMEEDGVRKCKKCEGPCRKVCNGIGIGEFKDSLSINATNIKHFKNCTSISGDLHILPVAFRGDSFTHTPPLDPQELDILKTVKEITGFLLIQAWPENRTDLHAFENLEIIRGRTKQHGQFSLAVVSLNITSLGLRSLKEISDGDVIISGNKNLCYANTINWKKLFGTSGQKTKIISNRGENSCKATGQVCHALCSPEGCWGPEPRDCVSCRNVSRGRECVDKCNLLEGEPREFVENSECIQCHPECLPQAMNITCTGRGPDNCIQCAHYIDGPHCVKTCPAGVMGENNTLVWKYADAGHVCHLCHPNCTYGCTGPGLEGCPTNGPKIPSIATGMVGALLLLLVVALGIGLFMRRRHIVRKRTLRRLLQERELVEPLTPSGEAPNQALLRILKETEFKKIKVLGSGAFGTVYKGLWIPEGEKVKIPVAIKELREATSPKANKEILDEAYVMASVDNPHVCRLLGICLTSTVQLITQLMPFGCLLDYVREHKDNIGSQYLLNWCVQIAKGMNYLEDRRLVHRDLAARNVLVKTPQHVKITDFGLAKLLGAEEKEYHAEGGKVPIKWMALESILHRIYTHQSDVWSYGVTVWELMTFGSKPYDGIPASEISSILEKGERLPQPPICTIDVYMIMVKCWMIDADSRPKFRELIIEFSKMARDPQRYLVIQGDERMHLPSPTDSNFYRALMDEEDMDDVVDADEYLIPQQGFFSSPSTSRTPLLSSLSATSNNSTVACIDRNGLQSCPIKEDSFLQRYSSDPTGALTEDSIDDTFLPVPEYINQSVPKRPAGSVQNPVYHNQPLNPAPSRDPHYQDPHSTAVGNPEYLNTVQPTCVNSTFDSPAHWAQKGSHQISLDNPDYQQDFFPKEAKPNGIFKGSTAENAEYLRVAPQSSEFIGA
Sequence of Lck (P06239 whole entry, species assumed): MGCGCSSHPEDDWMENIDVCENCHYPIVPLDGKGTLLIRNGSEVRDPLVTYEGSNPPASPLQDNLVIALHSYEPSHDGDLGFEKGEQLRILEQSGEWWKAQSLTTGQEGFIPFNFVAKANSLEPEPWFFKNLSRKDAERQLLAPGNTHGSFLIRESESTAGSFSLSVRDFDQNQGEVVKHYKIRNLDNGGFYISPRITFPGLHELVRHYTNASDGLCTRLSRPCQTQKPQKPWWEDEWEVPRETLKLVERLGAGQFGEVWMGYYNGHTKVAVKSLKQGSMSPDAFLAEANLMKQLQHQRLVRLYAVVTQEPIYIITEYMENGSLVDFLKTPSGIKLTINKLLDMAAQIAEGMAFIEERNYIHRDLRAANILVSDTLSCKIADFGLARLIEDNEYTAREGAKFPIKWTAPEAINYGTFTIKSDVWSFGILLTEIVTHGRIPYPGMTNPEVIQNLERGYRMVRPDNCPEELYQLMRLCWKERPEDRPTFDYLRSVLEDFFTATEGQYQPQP
Sequence of Btk Cys 481 to Ala mutation (Q06187 whole entry C481A): as the sequence (Q06187 whole entry) above, with C481A counted along it
Sequence of Btk Tyr 551 to Ala mutant (Q06187 whole entry Y551A): as the sequence (Q06187 whole entry) above, with Y551A counted along it

For `C=CC(=O)N1CCC[C@@H](n2nc(-c3ccc(Oc4ccccc4)cc3)c3c(N)ncnc32)C1` [Compound 2], the IC50 against c-met came to 35000 nM; in [1], 10 nM.

Regarding `CC1=CC(C)=[N+]2C1=Cc1ccc(CCC(=O)NCCN3CCN(C/C=C/C(=O)N4CCC[C@@H](n5nc(-c6ccc(Oc7ccccc7)cc6)c6c(N)ncnc65)C4)CC3)n1[B-]2(F)F` [Compound 3], the IC50 amounted to 300 nM on Abl; 100000 nM against c-met; 2900 nM on EGFR; 240 nM against Lck; 230 nM in assay [1]; 300 nM at Btk [2]. Also, the IC50 on Btk [3] (ATP at Km, read-out: IC50 Btk) worked out at 89 nM; at Btk [3] (read-out: IC50 against Btk) it was 90 nM. For the same compound, the EC50 on Btk [4] and at Btk [5] was roughly 200 nM in each case. The “Probe concentration at which labeling of Btk reached saturation” value on purified, active Btk (1 μg (0.13 μM) purified Btk, 1 hour at 37° C.) is 1 µM. Further, the “Probe labeling of Btk C481A mutant” value in assay [6] was “abrogated labeling”. For the same compound, the “Probe labeling of Btk K430A mutant” value in [7] is listed as “no effect on probe labeling”. The “Probe labeling of Btk Y551A mutant” value in [8] is on record as “also labeled”.

Regarding `Nc1ncnc2c1ncn2[C@@H]1O[C@H](COP(=O)(O)OP(=O)(O)OP(O)(O)=S)[C@@H](O)[C@H]1O` [ATP-γ-S, reference compound], the “Effect of pre-incubation on Compound 3 labeling of Btk” value at purified, active Btk (pre-incubation with 1 μM Compound 2 or 0.5 mM ATPγS) is on record as “substantially reduced”.

As a reminder, the IC50 is the concentration needed to halve the response being measured. The term EC50 denotes the concentration giving half of the maximal effect. Read a low EC50 as greater potency.
